Assay results as given in patent publication US5851537A (priority 1997, dated 1998).
≈ marks a conversion by molar mass, not a printed value.

What was measured:
[1] = system: psoriasis and various cutaneous malignancies; settings: cited from earlier work
[2] = system: cultured normal keratinocytes; settings: in vitro; cited from earlier work
[3] = chemical stability of α-DFMO in cream, HPLC; format: physicochemical; settings: Vanicream, 4° C., six month time point; 262800 min
Description: The reverse phase (C-18 column, Alitech Associates, 150 mm×4.6 mm, […]) assay was performed with a 30 minute gradient elution using two mobile phases (A and B) containing aqueous buffer and acetonitrile, respectively. Mobile phase A contained 100 mM sodium acetate, 15 mM triethylamine, and […] sodium EDTA dissolved in water at pH 5.0. Mobile phase B was acetonitrile UV® (Burdick & Jackson, Muskegon, Mich.). The starting proportion, A:B, was 92:8, at 18 min. it was 80:20; at 19-21 min. 40:60; and at 22-30 min. 92:8 [21]. The mobile phase was pumped at 1.2 mL/min. using a Perkin Elmer Biocompatible Binary Pump, a Hitachi AS-2000 Autosampler and a Hewlett Packard Series 1050 Solvent Programmer.
For the stability assays, the 10% cream formulation was stored at 4° C. for up to 6 months and 10 μL aliquots were removed weekly and analyzed by HPLC after extraction using 1 mL distilled water.

[4] = in vivo
Source text: (§1) Forty-eight participants with severe actinic keratoses (AKs) on their forearms (i.e. at least ten well circumscribed lesions nonlateral, sun-exposed surfaces) completed a one month run-in on placebo ointment applied twice daily to the affected areas. […] After six months of treatment, all measurements were repeated. […] The study was described at the thirty-second annual meeting of the American Society of Clinical Oncology on May 18-21, 1996.

[5] = system: ornithine decarboxylase; settings: time and concentration dependence, reversibility; cited from earlier work
[6] = system: mouse skin; assay: α-DFMO content of mouse skin samples; settings: 10% α-DFMO in Vanicream, 37° C.
Description: (§2) These were minced by scissors and then sonicated for 30 seconds in 100 μL of (0.4 m) HClO4 containing 10 mM internal standard GABA. To this mixture, 100 μL of water was added and the contents were then centrifuged at 10,000×G for 3 min. A 10 μL aliquot of supernatant was added to 40 μL of sodium tetraborate solution (pH 9.3) and mixed with […] the derivatizing agent 6-aminoquinolyi-N-hydroxysuccinimidyl carbamate. This mixture was then heated for 10 min. at 50° C. and a 20 μL aliquot was injected into the HPLC.

[7] = in vitro; settings: skin, topical or ocular
Description: as §2

[8] = system: human skin; assay: in vitro
Description: as §2

[9] = solubility limit in the vehicle; format: physicochemical; settings: in the particular vehicle used
Source text: Having thus described the invention, it will be apparent to those of skill in the art that modifications can be made within the scope of the invention. […] Also, the vehicle cannot contain absorption enhancers.

[10] = oral, humans; cited from earlier work
[11] = system: total polyamines; assay: phase IIb study, total polyamines; format: in vivo, human; settings: 10% (w/w) topical, six months, compared to placebo
Source text: as §1

[12] = system: mouse epidermis; settings: five percent solution, in vitro; cited from earlier work
[13] = system: actinic keratoses (AKs); assay: phase IIb study, number of actinic keratoses; format: in vivo, human; settings: 10% (w/w) topical, six months, compared to placebo
Source text: as §1

[14] = system: skin ODC; settings: five of seven subjects, 6 hours after oral dosing, 0.5 g/m^2; cited from earlier work
[15] = oral, single 0.5 g/m^2 dose given daily, cited from earlier work
[16] = system: human skin
[17] = system: psoriatic lesions; settings: cited from earlier work
[18] = system: UVB induced skin cancer; settings: cited from earlier work
[19] = system: BALB/c mice; assay: four week topical toxicity study in mice; format: in vivo
Source text: Adult female BALB/c mice, 25-31 gm. weight, were obtained from Jackson Laboratories, Bar Harbor, Me. For toxicology tests, the mice were housed 5/cage and received standard lab chow and tap water ad libitum. A 12-hour light/dark cycle in a humidified atmosphere was utilized. Toxicology Study A cohort of 20 mice were de-haired over a 2 cm^2 dorsal area using the topical depilatory agent, Nair® Lotion (Carter Wallace, Inc., New York, N.Y.). […] The daily dose was delivered by a positive displacement pipette (Micro-Man®, Gilson Scientific, Woburn, Mass.).
Using the murine total body surface area conversion nomogram of Freireich et al., the daily doses for the 3 cream concentrations of 1%, 5% and 10% were 71.4 mg/m^2, 357 mg/m^2, 714 mg/m^2. For the total four week period, the cumulative doses were 1.43 g/m^2, 7.14 g/m^2 and 14.28 g/m^2. […] The skin application sites were observed daily for evidence of any local toxicity (erythema, induration or ulceration) and the animals were weighed weekly. At the end of the four week treatment period, the mice were sacrificed by rapid cervical dislocation and blood samples were obtained for quantifying renal function (BUN, creatinine), hepatic function (SGOT-SGPT, bilirubin), electrolytes (Na^+ K^+ Cl^-, ^- HCO3^-), hematologic indices (WBC with differential, RBC, platelets) and glucose (Animal Diagnostic Laboratories,Tucson, Ariz.).

[20] = system: human skin; assay: in vitro transdermal penetration, human skin (diffusion cells); settings: 24 hours, 37° C., 10% α-DFMO
[21] = system: mouse skin; assay: in vitro transdermal penetration, mouse skin (diffusion cells); format: in vitro ADME, BALB/c mice
[22] = phase IIb study, α-DFMO in skin and blood
Source text: as §1

[23] = ten percent cream with absorption enhancer, ten patients

CC(/C=N/NC(=N)N)=N\NC(=N)N [MGBG, mitoguazone]
skin irritation ([1]; in vivo): highly irritating | therapeutic effects in psoriasis and various cutaneous malignancies ([1]; topically or intralesionally): produces therapeutic effects | proliferation of cultured normal keratinocytes [2]: decrease the proliferation

NCCC[C@](N)(C(=O)O)C(F)F [α-DFMO, alpha-difluoromethylornithine]
loss of α-DFMO [3]: < 1% | participants with moderately severe skin rash [4]: one | participants with skin rash in the area of DFMO application [4]: Four | systemic toxicities [4]: no systemic toxicities | inhibition of ornithine decarboxylase [5]: time and concentration dependent but is irreversible | time of peak uptake into mouse skin [6]: 4 h | concentration at 24 h ([7]; human): 323000 ng/g | concentration at 4 h ([7]; mouse): 7.25e+06 ng/g | intradermal levels [8]: substantial intradermal levels | time of peak uptake into human skin [8]: 24 h | concentration ([8]; human, skin, topical or ocular): 1360 µM | solubility [9]: ~220 mg/mL (≈ 1210 mM) | ototoxicity [10]: associated with ototoxicity | suppression of total polyamines [11]: 21% | putrescine levels [12]: twenty-five | spermine and spermidine levels [12]: not affected | synthesis of DNA [12]: blocks the synthesis of DNA | reduction in the number of AKs [13]: 21% | reduction in skin ODC levels [14]: ≥ 50% | plasma concentration×time product [15]: 311 μm×hr | terminal phase half life [15]: 3.5 h | Cmax ([15]; read-out: peak α-DFMO plasma concentrations): 47.1 µM | time until transdermal human skin penetration apparent [16]: > 20 h | systemic uptake ([17]; human, in vivo): systemic uptake in the patients | improvement in psoriatic lesions [17, 23]: marginal improvement | reduction of cutaneous spermine levels [17, 23]: sixty-six | body weight loss ([18]; 1% drinking water solution): 16% | hyperactivity ([18]; 1% drinking water solution): sound-induced hyperactivity | UVB induced skin cancer incidence ([18]; 1% solution in drinking water, reduced from 38%): 9% | UVB-induced immunosuppression ([18]; oral α-DFMO regimen, 1% in drinking water): prevented UVB-induced immunosuppression | drug related alterations in weight gain ([19]; mouse, in vivo): without drug related alterations in weight gain | hair regrowth ([19]; mouse, in vivo): proceeded normally | local skin irritation ([19]; mouse, in vivo): no evidence of local skin irritation | serum enzymes, electrolytes or hematologic parameters ([19]; mouse, in vivo): no alterations | survival ([19]; topical 1%, 5% or 10% cream, through the study period): survived through the study period | toxicity in mice (summary) ([19]; topical formulation): nontoxic in mice | degree of penetration [20]: 0.7 % of the applied concentration | uptake into and penetration through mouse skin [21]: significant α-DFMO uptake into and penetration through mouse skin | degree of transdermal penetration versus azone-containing formulation ([21]; 10% α-DFMO in Vanicream, mice, vs 5% α-DFMO with azone): substantially less | calculated penetration rate ([21]; mouse skin, 10% α-DFMO formulation in Vanicream): 3.6 μg/cm^2 /hour | mean percent uptake (transdermal penetration) ([21]; mouse skin, 37° C., 24 hours, 10% α-DFMO): 61.53 % of the applied dose | time of maximal transdermal penetration ([21]; mouse skin, 37° C., Vanicream): 24 h | time of maximal penetration ([21]; mouse skin, hydrophilic ointment U.S.P., 37° C.): 12 h | α-DFMO in blood ([22]; 10% (w/w) topical, six months): not detected in blood | systemic uptake ([22]; in vivo): no systemic uptake | treated forearms with high DFMO skin levels ([22]; in vivo): thirteen
